Source: patent US11000492B2, “Fluorenone compound for the treatment of gout” (The Trustees of Columbia University in the City of New York, priority 2015, dated 2021)
Entries after “also recorded” stand apart in the source; their conditions may differ. Read-outs that look alike come from different tables or passages of the source.

Tests used:
[1] = test system: serum uric acid; conditions: cited from earlier work; for patients meeting target serum levels (serum uric acid): patients with at least one measurable tophus
[2] = test system: serum urate; conditions: cited from earlier work
[3] = test system: uric acid levels in the urine; experiment: Uric acid levels in the urine of guinea pig; type: in vivo
Source text: The fluorenone DPOFA, (R)-(+)-(5,6-dichloro-2,3,9,9a-tetrahydro-3-oxo-9a-propyl-1H-fluoren-7-yl)oxy]acetic acid, was originally developed for trauma-induced brain damage.

[4] = test system: gout; experiment: Administration of DPOFA to subjects afflicted with or at risk of gout (Examples 3-6); type: in vivo, human
Procedure: An amount of compound DPOFA is administered to a human subject afflicted with gout. […] An amount of compound DPOFA in combination with allopurinol or febuxostat is administered to a subject afflicted with gout. […] An amount of compound DPOFA is administered to a subject with a history of gout flares or who is at risk for a gout flare. […] An amount of compound DPOFA in combination with allopurinol or febuxostat is administered to a subject with history of gout flares or who is at risk for a gout flare.

[5] = test system: serum uric acid; experiment: Serum uric acid after systemic intraperitoneal administration in guinea pigs; type: in vivo
[6] = humans; originally studied for treating brain edema; cited from earlier work
[7] = particularly in the 400 mg group

O=C(O)CSc1nnc(Br)n1-c1ccc(C2CC2)c2ccccc12 [lesinurad]
improvement at six months (primary endpoint) ([1]; 200 mg dose): failed to show a significant improvement | proportion of subjects achieving a complete resolution of at least one tophus by month 12 ([1]; combination with febuxostat): did not result in a significant difference | patients meeting target serum levels (serum uric acid) ([1]; lesinurad 400 mg in combination with febuxostat): 76% | rate of renal-related AEs [1, 7]: higher rate of renal-related AEs | serum creatinine levels [1, 7]: rise in serum creatinine levels

CCCN(CCC)S(=O)(=O)c1ccc(C(=O)O)cc1 [probenecid]
patients achieving target serum urate concentrations (<0.36 mmol/l) ([2]; allopurinol combination treatment group, 10/27): 37% | adverse effects, share of subjects tested ([2]; human, in vivo): 19% | patients achieving target serum urate concentrations (<0.36 mmol/l) ([2]; probenecid monotherapy group, 10/30): 33%

CCC[C@]12CCC(=O)C=C1c1c(cc(OCC(=O)O)c(Cl)c1Cl)C2 [DPOFA]
uric acid levels in the urine [3]: increases uric acid levels in the urine | serum uric acid levels in subject afflicted with gout ([4]; human subject afflicted with gout, Example 3): reduces serum uric acid levels | treating gout, combination versus each compound alone ([4]; in combination with allopurinol or febuxostat, Example 4): more effective in treating the gout than each compound administered alone | preventing gout, combination versus each compound alone ([4]; in combination with allopurinol or febuxostat, Example 6): more effective in preventing the gout than each compound administered alone | prevention of gout flares ([4]; subject with a history of gout flares or at risk, Example 5): effective to prevent gout flares | reduction in the serum uric acid level ([5]; 20 mg intraperitoneally): pronounced reduction; also recorded: reduced uric acid levels in the blood | time point of maximum reduction of uric acid ([5]; following systemic administration of 20 mg): 7 h | crossing of the blood-brain barrier [6]: failed to cross the blood-brain barrier

Cc1nc(-c2ccc(OCC(C)C)c(C#N)c2)sc1C(=O)O [febuxostat]
patients meeting target serum levels (serum uric acid) ([1]; febuxostat alone): 46%
